Series [1] can be described thus: Cyclic voltammetry (oxidation/reduction potentials). In kind it is physicochemical. As to conditions: Ag/AgCl electrode, scan rate 100 mV s^−1, 0.100 M [NBu4][PF6] in MeCN.
Series [2] deals with T. gondii (ΔKu80::mNeonGreen). The series can be described thus: T. gondii growth inhibition assay (mNeonGreen fluorescence). As to conditions: three independent experiments in triplicate, ± SEM. The series is classed as cell-based, Toxoplasma gondii. The procedure: […]. The rate of hydrolysis of C2 and C4 is closely correlated to the activity seen against T. gondii, such that the more readily the complex separates into its constituents, parts the better the overall activity.
To further investigate whether the accumulation of ROS was implicated in the MoA, the growth inhibition studies were repeated in the presence of the ROS scavenger N-acetyl cysteine (NAC) (Table 5).
Growth inhibition assays were performed in black, clear-bottomed 96 well plates preseeded with Human foreskin fibroblasts (HFFs) as described previously.[48] ΔKu80:mNeonGreen T. gondii were counted using a hemeocytometer and media from the host-cell seeded plate was aspirated and replaced with either 200 μL of D3 or 200 μL of media + 5000 parasites per well. Infected cells were incubated for 2 hours at 37 °C with 5% CO2 to allow for invasion. Following this, the media was removed and replaced with 100 μL fresh media. 100 μL of media containing 100 μM of the indicated drug in sterile DMSO was added and serially diluted. The parasites were then incubated for four days at 37 °C with 5% CO2 then flourescense read using the PHERAstar microplate reader. After removal of background, fluorescence values were normalised to untreated and plotted. Data analysis and non-linear regression was performed in Prism.

The subject of the next series is T. gondii. The series can be described thus: Determination of intracellular ROS levels with CellROX by flow cytometry. As to conditions: 5 μM, 6 hours, 50 000 parasites, vs untreated. In kind it is cell-based, Toxoplasma gondii. The method, then: Since both ferrocene and artesunate are able to generate ROS, we attempted to quantify the intracellular ROS levels in the parasite using CellROX, a compound which fluoresces in the presence of ROS. Treatment with artesunate was included as positive control as previous studies have linked artesunate treatment to ROS accumulation.[44] The parasites were treated with 5 μM of complexes C1, C3 and C4, and incubated for 6 hours. […] Since T. gondii rely predominately on heme biosynthesis as opposed to incorporation of heme from host hemoglobin, the concentration of iron present in the parasite is lower.[45] But, by incorporating an iron center in the molecule the slower activation may be circumvented leading to quicker cell death and a decreased CellROX reading.
Fig. 5 CellROX fluorescence quantified by flow cytometry from 50 000 parasites. T. gondii were untreated (grey) or treated for 6 hours with 5 μM compounds (blue) or artesunate (red) as a positive control.
Intracellular parasites were treated with 5 μM of the drug and incubated at 37 °C with 5% CO2 for either 18 hours or 6 hours. The parasites were released from host cells by scraping and syringing followed by passing through 3 μm filters to remove host-cell debris. The parasites were spun down at 6000 RPM for 10 minutes and resuspended in 500 μL PBS. 100 μL of the parasite suspension was placed in a FACS tube and a stock solution of CellROX dye in PBS (1 : 125 dilution) was added to this. This was then incubated in the dark at 37 °C for 1 hour and then read using a BD Celesta. Parasites were gated on forward and side scatter and on mNeonGreen fluorescence and histograms of Cy5 signal presented. Data analysis was performed using Flowjo.

For the next series, the system named is P. falciparum, NF54. The series can be described thus: P. falciparum growth inhibition assay (Malstat). The series is classed as cell-based, Plasmodium falciparum. As to conditions: 72 h, maximum concentration tested 6000 nM, three independent experiments in triplicate, ± SEM; read-out: IC50 against P. falciparum, NF54. The procedure: The antimalarial activities of C1 to C4 and F1 to F3 were determined against the wild-type drug sensitive strain of P. falciparum, NF54. […]. Further, a close link between activity and oxidation potentials of the drugs was found. The lower the oxidation potential of the ferrocene moiety, the higher the activity of the final compound, giving directions for future compound development.
The drugs were prepared as 10 mM stocks in sterile DMSO. The drugs were then diluted using freshly prepared growth medium to the desired testing concentrations. Chloroquine and artesunate were used as standards. A full dose–response was preformed using a 96-well plate assay and the IC50 values determined. The maximum concentration tested was 6 μM which was then serially diluted 2-fold in growth media. The plates were incubated at 37 °C for 72 h at 3% O2 and 4% CO2. After 72 h the wells were resuspended and 15 μL of the suspension was transferred to a duplicate plate containing 100 μL of Malstat reagent and 25 μL of nitroblue tetrazolium solution. The plates were allowed 20 minutes in the dark to develop and the absorbance of each well was measured using UV-Vis at 620 nm.

The next series concerns PNT1A cells. The series can be described thus: MTT cell viability assay, PNT1A. The series is classed as cell-based, human. The following applies: 48 h. The method, then: To assess the cytotoxicity of the four compounds a MTT cell viability assay using human embryonic kidney (HEK293) and human prostatic (PNT1A) cell lines were performed. […] The long chain compounds C1 and C3 were also shown to be non-cytotoxic towards the HEK293 cell line.
The immortalised human prostatic epithelial cell line, PNT1A (Sigma Aldrich, 95012614) was cultured in RPMI-1640 containing 10% foetal calf serum (Life Technologies, South Africa). The human embryonic kidney cell line HEK293 (ATCC) was cultured in DMEM (Life Technologies, South Africa). Both cell lines were cultured at 37 °C under 5% CO2 with 1% penicillin and streptomycin. Cancer cell cytotoxicity was evaluated using the MTT viability assay according to our previous method.[49] Briefly, cells were seeded at a density of 3 × 10^3 cells per well in 96-well plates and allowed to settle overnight. A 100 mM stock of C1/C2 and a 50 mM stock solution of C3/C4 in DMSO was prepared from which dilutions were made. The compound was then added to the cells in triplicate to obtain the indicated concentrations and 0.1% DMSO. Controls included cells treated with […] DMSO alone. After 48 h, 10 μL of 5 mg mL^−1 MTT (3-(4,5-dimethylthiazol-2-yl)-2,5-diphenyltetrazolium bromide) (Sigma-Aldrich) was added, and incubated with the cells for 4 h, followed by addition of 100 μL 10% SLS, 0.01 M HCL. The plates were read at 595 nm on a Multiscan FC plate reader (Thermo Scientific) and the data was fitted to a variable slope dose–response curve using Graphpad prism v6 to obtain the cytotoxicity IC50. The assay was repeated independently three times where inhibition was observed.

Where [3] appears, read: four days, in HFF host cells, read-out: IC50 against T. gondii.
The mark [4] stands for this setting: with 5 mM NAC (ROS scavenger), read-out: IC50 + NAC against T. gondii.

The structures appear in SMILES notation. Read-outs that look alike come from different tables or passages of the source.

Broadly, the IC50 is the concentration that gives 50% inhibition. In the case of `CC1CCC2C(C)C(OC(=O)CCC(=O)OCCNC(=O)[c-]3cccc3)OC3OC4(C)CCC1C32OO4.[Fe+2].c1cc[cH-]c1` (stereo not drawn) [Compound C1], in series [1], the “E 1/2” value amounted to 0.623 V, the “E Ox” value is 0.658 V, the “E Red” value is 0.588 V and the ΔE stood at 0.0700 V. In addition, the 50% inhibitory concentration (IC50) in series [2] (setting [3]) came out at 680 ± 31 nM. In series [2] (setting [4]), the half-inhibitory concentration (IC50) was determined as 830 ± 130 nM. Further, the “Change in CellROX signal (intracellular ROS)” value (from here on “Change in CellROX signal”) in the series on T. gondii is “no change in CellROX signal”. In addition, in the series on P. falciparum, NF54, the IC50 came out at 3400 ± 530 nM. In addition, in the series with PNT1A cells, the IC50 is over 100000 nM.
For `CC1CCC2C(C)C(OC(=O)CCC(=O)NCCNC(=O)[c-]3cccc3)OC3OC4(C)CCC1C32OO4.[Fe+2].c1cc[cH-]c1` (stereo not drawn) [Compound C3], the “E 1/2” value in series [1] is on record as 0.616 V. Moreover, in series [1], the “E Ox” value is 0.660 V. In series [1], the “E Red” value is on record as 0.571 V. Besides, in series [1], the ΔE turned out to be 0.0890 V. For the same compound, the half-inhibitory concentration (IC50) is 1200 ± 64 nM in series [2] (setting [3]); 1500 ± 140 nM in series [2] (setting [4]); 4900 ± 930 nM in the series with P. falciparum, NF54; over 50000 nM in the series with PNT1A cells. In the series on T. gondii, the “Change in CellROX signal” value is given as “increase in intracellular ROS”.
On to `CC1CCC2C(C)C(OC(=O)CCC(=O)NC[c-]3cccc3)OC3OC4(C)CCC1C32OO4.[Fe+2].c1cc[cH-]c1` (stereo not drawn) [Compound C4], for which, in series [1], the “E 1/2” value is recorded as 0.364 V, the “E Ox” value is 0.400 V, the “E Red” value stood at 0.327 V and the ΔE is listed as 0.0730 V. For the same compound, in series [2] (setting [3]), the IC50 worked out at 600 ± 35 nM. Besides, the half-inhibitory concentration (IC50) in series [2] (setting [4]) came out at 1200 ± 179 nM. Moreover, in the series on T. gondii, the “Change in CellROX signal” value was “no change in CellROX signal”. In addition, the half-maximal inhibitory concentration (IC50) with P. falciparum, NF54 worked out at 12 ± 2 nM. In the series on PNT1A cells, the concentration for half-maximal inhibition (IC50) was over 50000 nM.

These data come from PMC10628858, “Investigation of new ferrocenyl-artesunate derivatives as antiparasitics” (Dalton Transactions (Cambridge, England : 2003), 2023).
